Data: patent US9510598B2, “Nitrogen-containing heterocyclic compounds for plant disease control” (BAYER CROPSCIENCE AG, priority 2012, dated 2016)
Read-outs that look alike come from different tables or passages of the source.

Tests used:
[1] = type: physicochemical; details: for Log P: method [a]: HPLC/LC-MS on reversed phase at pH 2.7, 0.1% formic acid in water and acetonitrile
Botrytis cinerea = assay: In vivo preventive test on Botrytis cinerea (grey mould); details: 500 ppm; gherkin plants sprayed 24 hours before contamination; grading 4-5 days after contamination vs control plants
Method: Gherkin plants (“Vert petit de Paris” variety), sown in starter cups on a 50/50 peat soil-pozzolana substrate and grown at 24° C., are treated at the Z11 cotyledon stage by spraying with the active ingredient prepared as described above. Plants, used as controls, are treated with the mixture of acetone/tween/DMSO/water not containing the active material. After 24 hours, the plants are contaminated by spraying the cotyledons with an aqueous suspension of cryopreserved Botrytis cinerea spores (50 000 spores per ml). The spores are suspended in a nutrient solution composed of 10 g/L of PDB, 50 g/L of D-Fructose, 2 g/L of NH4NO3 and 1 g/L of KH2PO4. The contaminated gherkin plants are incubated at 17° C. and at 80% relative humidity. Grading (% of efficacy) is carried out 4-5 days after the contamination, in comparison with the control plants.

Septoria tritici = assay: In vivo preventive test on Septoria tritici (leaf spot on wheat); details: 500 ppm; wheat plants sprayed 24 hours before contamination; grading 21 to 28 days after contamination vs control plants
Method: Wheat plants (“Scipion” variety), sown in starter cups on a 50/50 peat soil-pozzolana substrate and grown at 22° C. (12 h)/20° C. (12 h), are treated at the 1-leaf stage (10 cm height) by spraying with the active ingredient prepared as described above. Plants, used as controls, are treated with the mixture of acetone/tween/DMSO/water not containing the active material. After 24 hours, the plants are contaminated by spraying the leaves with an aqueous suspension of cryopreserved Septoria tritici spores (500 000 spores per ml). […] Grading (% of efficacy) is carried out 21 to 28 days after the contamination, in comparison with the control plants.

[2] = linear gradient 10% to 95% acetonitrile
[3] = method [a]: HPLC/LC-MS on reversed phase at pH 2.7, 0.1% formic acid in water / acetonitrile, linear gradient 10% to 95% acetonitrile
[4] = HPLC on reversed phase columns, method [a]: pH 2.7, 0.1% formic acid in water / acetonitrile, linear gradient 10% to 95% acetonitrile
[5] = method [a]: HPLC/LC-MS on reversed phase at pH 2.7, 0.1% formic acid in water / acetonitrile, gradient 10% to 95% acetonitrile

| Compound | % of efficacy (protection) (Botrytis cinerea) [%] | % of efficacy (protection) (Septoria tritici) [%] | log P [1, 3] | log P [1, 5] | other results |
| --- | --- | --- | --- | --- | --- |
| C#Cc1cnc2ccc(C3=NOC(C(=O)NCCCOCC)(C(F)F)C3)cc2c1 (stereo not drawn) [Compound No. 615] | 95 | 79 | – | – | chromatographic logP ([1]; pH 2.7): 2.73 |
| CCOCCCNC(=O)C1(C)CC(c2cc3cc(Br)cnc3c(F)c2F)=NO1 (stereo not drawn) [compound 14] | 100 | – | – | – | Log P [1, 2]: 2.98^[a] |
| CCC(C)NC(=O)C1(C)CC(c2cc3cc(Br)cnc3c(F)c2F)=NO1 (stereo not drawn) [compound 22] | 93 | 83 | – | – | Log P [1, 2]: 3.31^[a] |
| CCOCCCNC(=O)C1(C(C)C)CC(c2ccc3ncc(Br)cc3c2)=NO1 (stereo not drawn) [compound 64] | 77 | 70 | 3.46^[a] | – | – |
| CCC1(C(=O)NC2CC2)CC(c2ccc3ncc(Br)cc3c2)=NO1 (stereo not drawn) [compound 69] | 99 | 97 | 2.75^[a] | – | – |
| CCOc1cnc2ccc(C3=NOC(C)(C(=O)NC(C)C)C3)cc2c1 (stereo not drawn) [compound 78] | 74 | 97 | 2.43^[a] | – | – |
| CC1(C(=O)NCC2CCOC2)CC(c2ccc3ncc(Br)cc3c2)=NO1 (stereo not drawn) [compound 127] | 80 | – | 2.2^[a] | – | – |
| C#Cc1cnc2ccc(C3=NOC(C)(C(=O)NCC4(C)CCCO4)C3)cc2c1 (stereo not drawn) [compound 128] | 98 | 83 | 2.42^[a] | – | – |
| CC1(C(=O)NCC2CCCO2)CC(c2ccc3ncc(Br)cc3c2)=NO1 (stereo not drawn) [compound 130] | 89 | – | 2.45^[a] | – | – |
| CC1(CNC(=O)C2(C)CC(c3ccc4ncc(Br)cc4c3)=NO2)CCCO1 (stereo not drawn) [compound 131] | 92 | 83 | 2.73^[a] | – | – |
| CCn1cc(CNC(=O)C2(C)CC(c3ccc4ncc(SC)cc4c3)=NO2)c(C)n1 (stereo not drawn) [compound 147] | 88 | – | 2.09^[a] | – | – |
| C#Cc1cnc2ccc(C3=NOC(C)(C(=O)NCc4cnc(C)cn4)C3)cc2c1 (stereo not drawn) [compound 167] | 100 | 100 | 1.98^[a] | – | – |
| C#Cc1cnc2ccc(C3=NOC(C)(C(=O)NCc4ccccc4Cl)C3)cc2c1 (stereo not drawn) [compound 168] | 99 | 71 | 3.23^[a] | – | – |
| C#Cc1cnc2ccc(C3=NOC(C)(C(=O)NCc4cnn(-c5ccccc5)c4)C3)cc2c1 (stereo not drawn) [compound 186] | 92 | 71 | 2.78^[a] | – | – |
| C#Cc1cnc2ccc(C3=NOC(C)(C(=O)NCc4cccc(OC(F)(F)F)c4)C3)cc2c1 (stereo not drawn) [compound 190] | 89 | 71 | 3.48^[a] | – | – |
| C#Cc1cnc2ccc(C3=NOC(C)(C(=O)NCc4cc(Cl)cc(Cl)c4)C3)cc2c1 (stereo not drawn) [compound 193] | 74 | – | 3.71^[a] | – | – |
| CC1(C(=O)NCc2cnn(-c3ccccc3)c2)CC(c2ccc3ncc(Br)cc3c2)=NO1 (stereo not drawn) [compound 202] | 87 | – | 3.11^[a] | – | – |
| C#Cc1cnc2ccc(C3=NOC(C)(C(=O)NC4COC4)C3)cc2c1 (stereo not drawn) [compound 238] | 82 | 93 | – | – | log P [1, 4]: 1.75^[a] |
| CC(C)NC(=O)C1(C2CC2)CC(c2ccc3ncc(Br)cc3c2)=NO1 (stereo not drawn) [compound 267] | 85 | 93 | – | – | log P [1, 4]: 3.25[a] |
| CCn1cc(CNC(=O)C2(C3CC3)CC(c3ccc4ncc(Br)cc4c3)=NO2)c(C)n1 (stereo not drawn) [compound 268] | 93 | – | – | – | log P [1, 4]: 2.73[a] |
| C#Cc1cnc2ccc(C3=NOC(C)(C(=O)NC(CN4CCCC4)C4CC4)C3)cc2c1 (stereo not drawn) [compound 361] | – | 78 | – | – | log P [1, 4]: 1.37[a] |

| Compound | % of efficacy (protection) (Botrytis cinerea) [%] | % of efficacy (protection) (Septoria tritici) [%] | log P [1, 3] | log P [1, 5] | other results |
| --- | --- | --- | --- | --- | --- |
| COC1(C(=O)N(C)C)CC(c2ccc3ncc(Br)cc3c2)=NO1 (stereo not drawn) [compound 396] | – | 97 | – | 2.51[a] | – |
| COC1(C(=S)NC(C)C)CC(c2ccc3ncc(Br)cc3c2)=NO1 (stereo not drawn) [compound 410] | – | 100 | – | 3.69[a] | – |
| CCOC1(C(=O)NCc2cn(CC)nc2C)CC(c2ccc3ncc(Br)cc3c2)=NO1 (stereo not drawn) [compound 416] | – | 100 | – | 1.95[a] | – |
| CCOc1cnc2ccc(C3=NOC(C)(C(=O)NCc4cn(CC)nc4C)C3)cc2c1 (stereo not drawn) [compound 417] | – | 100 | – | 2.09[a] | – |
| CCCOc1cnc2ccc(C3=NOC(C)(C(=O)NCc4cn(CC)nc4C)C3)cc2c1 (stereo not drawn) [compound 418] | 79 | 83 | – | 2.46[a] | – |
| C#Cc1cnc2ccc(C3=NOC(OC)(C(=O)N(OC)C(C)CC)C3)cc2c1 (stereo not drawn) [compound 466] | – | 97 | – | 3.31[a] | – |
| C#Cc1cnc2ccc(C3=NOC(OC)(C(=O)N(C(C)C)C4CC4)C3)cc2c1 (stereo not drawn) [compound 467] | – | 97 | – | 3.35[a] | – |
| C#Cc1cnc2ccc(C3=NOC(OC)(C(=O)N(OC)C(C)C)C3)cc2c1 (stereo not drawn) [compound 468] | – | 100 | – | 2.96[a] | – |
| CCn1cc(CNC(=O)C2(C)CC(c3ccc4nc(OC)c(I)cc4c3)=NO2)c(C)n1 (stereo not drawn) [compound 472] | – | 75 | – | 3.11[a] | – |
| C#Cc1cnc2ccc(C3=NOC(OC)(C(=O)NCC(O)CO)C3)cc2c1 (stereo not drawn) [compound 473] | – | 75 | – | 1.44[a] | – |
| CCn1cc(NC(=O)C2(C)CC(c3ccc4ncc(Br)cc4c3)=NO2)c(C)n1 (stereo not drawn) [compound 489] | – | 93 | – | 2.50[a] | – |
| C#Cc1cc2cc(C3=NOC(C)(C(=O)NCc4cn(CC)nc4C)C3)ccc2nc1OC (stereo not drawn) [compound 490] | – | 88 | – | 2.55[a] | – |
| C#Cc1cc2cc(C3=NOC(C)(C(=O)NCc4cn(CC)nc4C)C3)ccc2nc1C#N (stereo not drawn) [compound 491] | – | 75 | – | 2.39[a] | – |
| C#Cc1cnc2ccc(C3=NOC(CC)(C(=S)NCc4cn(CC)nc4C)C3)cc2c1 (stereo not drawn) [compound 507] | – | 97 | – | 3.31[a] | – |
| C#Cc1cnc2ccc(C3=NOC(OC)(C(=O)NC(C)(C)c4ccon4)C3)cc2c1 (stereo not drawn) [compound 509] | – | 97 | – | 2.52[a] | – |
| C=C(C)C1(C(=O)NC(C)C)CC(c2ccc3ncc(Br)cc3c2)=NO1 (stereo not drawn) [compound 517] | 80 | – | – | – | log P [1, 4]: 3.41[a] |
| Cc1cnc(CNC(=O)C2(C)CC(c3cc(Cl)c4ncc(Br)cc4c3)=NO2)cn1 (stereo not drawn) [compound 556] | – | 97 | – | – | log P [1, 4]: 2.64[a] |
| CCOCCCNC(=O)C1(C(C)O)CC(c2ccc3ncc(Br)cc3c2)=NO1 (stereo not drawn) [compound 560] | – | 97 | – | – | log P [1, 4]: 2.27[a] |
| CC1(C)OCC(CNC(=O)C2(C(F)F)CC(c3ccc4ncc(I)cc4c3)=NO2)O1 (stereo not drawn) [compound 618] | – | 93 | – | – | log P [1, 4]: 3.06[a] |
| C=CC1(C(=O)NCC2COC(C)(C)O2)CC(c2ccc3ncc(Br)cc3c2)=NO1 (stereo not drawn) [compound 732] | – | 100 | – | – | log P ([1]; HPLC on reversed phase columns, method [a]: pH 2.7, 0.1% formic acid in water and acetonitrile, linear gradient 10% to 95% acetonitrile): 2.98[a] |
